Data taken from patent US4857507A, “Angiotensinogen analogs” (Abbott Laboratories, priority 1987, dated 1989).

Target: T1, human renal renin (Homo sapiens, UniProt P00797)
T1 construct: human renal renin, free from acid proteolytic activity; from tissue; host or cells: human kidney (from the word 'renal')
T1 sequence (P00797 67-406): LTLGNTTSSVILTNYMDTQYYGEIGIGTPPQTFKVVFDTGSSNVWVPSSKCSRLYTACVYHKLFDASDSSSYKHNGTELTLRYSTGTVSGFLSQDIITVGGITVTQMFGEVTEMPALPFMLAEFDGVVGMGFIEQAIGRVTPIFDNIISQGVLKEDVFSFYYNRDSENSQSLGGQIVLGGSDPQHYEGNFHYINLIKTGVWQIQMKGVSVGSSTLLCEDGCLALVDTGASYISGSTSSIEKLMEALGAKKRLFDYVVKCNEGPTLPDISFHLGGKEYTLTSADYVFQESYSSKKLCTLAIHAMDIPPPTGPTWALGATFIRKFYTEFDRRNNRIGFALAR
Assay: inhibition of human renal renin in vitro, angiotensin I formed measured by radioimmunoassay
Type: biochemical
Settings: human renal renin with human renin substrate (angiotensinogen), 37° C., pH 6.0
Procedure: At the end of the incubation, the amount of angiotensin I formed is measured by radioimmunoassay and the molor concentration required to cause 50% inhibition, expressed as the IC50, is calculated.

| Molecule | IC50 [nM] |
| --- | --- |
| CC(C)(C)OC(=O)NC(Cc1ccccc1)C(=O)NC(Cc1cnc[nH]1)C(=O)N[C@@H](CC1CCCCC1)[C@@H](O)CCN=[N+]=[N-] (stereo partly drawn) [Example 125, Boc-Phe-His Amide of (3S,4S)-1-Azido-3-hydroxy-4-amino-5-cyclohexylpentane] | 20 |
| CC(C)C[C@H](NC(=O)[C@H](Cc1ccccc1)NC(=O)OC(C)(C)C)C(=O)N[C@@H](CC1CCCCC1)[C@@H](O)C(F)(F)CN=[N+]=[N-] [Example 78, Boc-Phe-Leu amide of (3R,4S)-3-hydroxy-4-amino-2,2-difluoro-1-azido-5-cyclohexylpentane] | 30 |
| CC(C)S(=O)(=O)NCC[C@H](O)[C@H](CC1CCCCC1)NC(=O)C(Cc1cnc[nH]1)NC(=O)C(Cc1ccccc1)NC(=O)OC(C)(C)C (stereo partly drawn) [Example 50, Boc-Phe-His Amide of (3S,4S)-1-(2-propylsulfonylamino)-3-hydroxy-4-amino-5-cyclohexylpentane] | 25 |
| CC(C)C[C@H](NC(=O)C(C)NC(=O)C(Cc1ccccc1)NC(=O)OC(C)(C)C)[C@@H](O)CCOc1ccccc1 (stereo partly drawn) [Example 21, Boc-Phe-Ala amide of (3S,4S)-4-amino-3-hydroxy-6-methyl-1-phenoxyheptane] | 2000 |
| CC(C)C[C@H](NC(=O)[C@H](Cc1ccccc1)NC(=O)OC(C)(C)C)C(=O)N[C@@H](CC1CCCCC1)[C@@H](O)C(F)(F)CSC(C)C [Example 83(A), Boc-Phe-Leu amide of (3R,4S)-3-hydroxy-4-amino-2,2-difluoro-1-isopropylmercapto-5-cyclohexylpentane] | 25 |
| CC(C)CCC(=O)NCC(F)(F)C(=O)[C@H](CC1CCCCC1)NC(=O)[C@H](CC(C)C)NC(=O)[C@H](Cc1ccccc1)NC(=O)OC(C)(C)C [Example 94, Boc-Phe-Leu amide of (4S)-3-oxo-4-amino-2,2-difluoro-1-isopentylcarbonylamino-5-cyclohexylpentane] | 2 |
| CCCSCC(=O)NCC[C@H](O)[C@H](CC1CCCCC1)NC(=O)C(Cc1cnc[nH]1)NC(=O)C(Cc1ccccc1)NC(=O)OC(C)(C)C (stereo partly drawn) [Example 67, Boc-Phe-His Amide of (3S,4S)-1-(2-Propylmercaptoacetylamino)-3-hydroxy-4-amino-5-cyclohexylpentane] | 25 |
| CC(C)CC(NC(=O)C(Cc1ccccc1)NC(=O)OC(C)(C)C)C(=O)N[C@@H](CC1CCCCC1)[C@@H](O)C(F)=CSC(C)C (stereo partly drawn) [Example 83(B), Boc-Phe-Leu amide of (3R,4S,EZ)-3-hydroxy-4-amino-2-fluoro-1-isopropylmercapto-5-cyclohexyl-1-pentene] | 50 |
| CC(C)CCC(=O)NCC[C@H](O)[C@H](CC1CCCCC1)NC(=O)C(Cc1cscn1)NC(=O)C(Cc1ccccc1)NC(=O)OC(C)(C)C (mixture of isomers) [Example 59, Boc-Phe-dl-4-thiazolylalanine Amide of (3S,4S)-1-(3-Methylbutylcarbonylamino)-3-hydroxy-4-amino-5-cyclohexylpentane] | 10 |
| CC(C)CCSCC[C@H](O)[C@H](CC(C)C)NC(=O)[C@H](C)NC(=O)[C@H](Cc1ccccc1)NC(=O)OC(C)(C)C [Example 17, Boc-Phe-Ala amide of (3S,4S)-4-amino-3-hydroxy-1-isoamylmercapto-6-methylheptane] | 5500 |
| CC(C)C[C@H](NC(=O)[C@H](Cc1ccccc1)NC(=O)OC(C)(C)C)C(=O)N[C@@H](CC1CCCCC1)C(=O)C(F)(F)CN=[N+]=[N-] [Example 88, Boc-Phe-Leu amide of (4S)-3-oxo-4-amino-2,2-difluoro-1-azido-5-cyclohexylpentane] | 2.5 |
| Boc-Phe-3-methyl-His Amide of (3S,4S)-1-(3-Methylbutylcarbonylamino)-3-hydroxy-4-amino-5-cyclohexylpentane [Example 52] | 15 |
| CC(C)CCC(=O)NCC(F)(F)[C@H](O)[C@H](CC1CCCCC1)NC(=O)C(CC(C)C)NC(=O)C(Cc1ccccc1)NC(=O)OC(C)(C)C (stereo partly drawn) [Example 85, Boc-Phe-Leu amide of (3R,4S)-3-hydroxy-4-amino-2,2-difluoro-1-isopentylcarbonylamino-5-cyclohexylpentane] | 20 |
| CC(C)CCC(=O)NCC[C@H](O)[C@H](CC1CCCCC1)NC(=O)C(C)NC(=O)C(Cc1ccccc1)NC(=O)OC(C)(C)C (stereo partly drawn) [Example 34, Boc-Phe-Ala Amide of (3S,4S)-1-(3-Methylbutylcarbonylamino)-3-hydroxy-4-amino-5-cyclohexylpentane] | 30 |
| CC(C)CCC(=O)NCC[C@H](O)[C@H](CC1CCCCC1)NC(=O)C(Cc1ccncn1)NC(=O)[C@H](Cc1ccccc1)NC(=O)OC(C)(C)C (mixture of isomers) [Example 62, Boc-Phe-dl-4-pyrimidinylalanine Amide of (3S,4S)-1-(3-Methylbutylcarbonylamino)-3-hydroxy-4-amino-5-cyclohexylpentane] | 20 |
| CC(C)C[C@H](NC(=O)[C@H](Cc1ccccc1)NC(=O)OC(C)(C)C)C(=O)N[C@@H](CC1CCCCC1)C(=O)/C(F)=C/S(=O)(=O)C(C)C [Example 96, Boc-Phe-Leu amide of (Z,4S)-3-oxo-4-amino-2-fluoro-1-isopropylsulfonyl-5-cyclohexyl-1-pentene] | 20 |
| Boc-Phe-His amide of (3S,4S)-4-amino-3-hydroxy-11-isoamylsulfonyl-6-methylheptane [Example 22] | 100 |
| CC(C)CC(NC(=O)C(Cc1ccccc1)NC(=O)OC(C)(C)C)C(=O)N[C@@H](CC1CCCCC1)[C@@H](O)C(F)=CS(=O)(=O)C(C)C (stereo partly drawn) [Example 87, Boc-Phe-Leu amide of (3R,4S,EZ)-3-hydroxy-4-amino-2-fluoro-1-isopropyl-sulfonyl-5-cyclohexyl-1- pentene] | 4.5 |
| CC(C)CCC(=O)NCC[C@H](O)[C@H](CC1CCCCC1)NC(=O)[C@H](Cc1cnc[nH]1)NC(=O)[C@H](Cc1ccccc1)NC(=O)OC(C)(C)C [Example 35, Boc-Phe-His Amide of (3S,4S)-1-(3-Methylbutylcarbonylamino)-3-hydroxy-4-amino-5-cyclohexylpentane] | 15 |
| Boc-Phe-dl-3-pyrazolylalanine Amide of (3S,4S)-1-(3-Methylbutylcarbonylamino)-3-hydroxy-4-amino-5-cyclohexylpentane [Example 58] | 6 |
| CCCS(=O)(=O)CC(=O)NCC[C@H](O)[C@H](CC1CCCCC1)NC(=O)[C@H](Cc1cnc[nH]1)NC(=O)[C@H](Cc1ccccc1)NC(=O)OC(C)(C)C [Example 68, Boc-Phe-His Amide of (3S,4S)-1-(2-Propylsulfonylacetylamino)-3-hydroxy-4-amino-5-cyclohexylpentane] | 20 |
| CC(C)CCS(=O)(=O)CC[C@H](O)[C@H](CC(C)C)NC(=O)[C@H](C)NC(=O)[C@H](Cc1ccccc1)NC(=O)OC(C)(C)C [Example 19, Boc-Phe-Ala amide of (3S,4S)-4-amino-3-hydroxy-1-isoamylsulfonyl-6-methylheptane] | 2500 |
| CC(C)C[C@H](NC(=O)C(Cc1cnc[nH]1)NC(=O)C(Cc1ccccc1)NC(=O)OC(C)(C)C)[C@@H](O)CCS(=O)(=O)CCc1ccccc1 (stereo partly drawn) [Example 23, Boc-Phe-His amide of (3S,4S)-4-amino-3-hydroxy-6-methyl-1-phenethylsulfonylheptane] | 80 |
